Structures can show the parent of a compound that is named as a salt.
What was measured:
Type in all cases: cell-based
[1] = tested on: Mouse melanoma cells (MM-4 cell line); test: Cytotoxic effect of E2+85Rbe and antitumor drug added 24 hours apart
Description: The effectiveness of the method of the invention that comprises administering antitumor drugs and ^85Rb-enriched rubidium salt of N-benzoyl-N-(4-toluenesulfonyl)-o-phenylenediamine of formula I was measured in the experiment. […] Both orders were tested: AD administered first (Scheme 2, below), and AD administered second (Scheme 1, below).
Materials and Methods: Mouse melanoma cells (MM-4 cell line) were seeded into 96-well plates (TPP, Italy), in DMEM (Biowest, France) supplemented with 10% newborn calf serum (Biowest, France) and […] gentamicin (Sigma, USA) at a seeding density of 5×10^4 cells/ml. The cells were then cultured in an incubator with a humidified atmosphere of 5% CO2 in air at 37° C. The experiment was carried out in accordance with the three schemes given below. The experiment was started 24 hours after the cells were seeded. For this purpose, the agents used in the method were introduced into the appropriate wells. The following schemes of introduction were used for the study:
Scheme 1) The ^85Rb-enriched rubidium salt of N-benzoyl-N′-(4-toluenesulfonyl)-o-phenylenediamine of formula I was introduced at the first stage in the following amounts: 2.0 μg/ml, 1.0 μg/ml, 0, 5 μg/ml, and one antitumor drug was introduced at the second stage (after 24 hours).
Scheme 2) An AD was introduced at the first stage at doses as indicated in Scheme 1 above and ^85Rb-enriched rubidium salt of N-benzoyl-N′-(4-toluenesulfonyl)-o-phenylenediamine of formula I was introduced at the second stage (after 24 hours) at the following doses: 2.0 μg/ml, 1.0 μg/ml, 0.5 μg/ml.
After all the agents were added into the wells, the cells were incubated at 37° C. and 5% CO2 for another 72 hours (96 hours in total after the cells were seeded).
As in example 2, the cytotoxic effect was determined as the percentage of the cell number with respect to the control after their treatment in accordance with the claimed method. The effects of the drugs were evaluated visually, which allowed us to examine the morphological pattern of the cytotoxic action of the drugs, and by staining the cells with crystal violet, followed by OD measurement at an excitation wavelength of 540 nm using a MultiSkan microplate spectrophotometer.
The effects of the complex action of various doses of the investigated substances were evaluated using the concept of synergistic, additive and antagonistic effects of the drugs, as for Example 2, and calculating CI as described in Example 2.
Each table sets forth the % of MM-4 cells that survived in the presence of the drug doses indicated in the in vitro experiments described above, expressed as a percentage of the cells in the control wells.

[2] = tested on: Mouse B16 melanoma cells (MM-4 cell line); test: Cytotoxic/cytostatic activity of E2+85Rbe and antitumor drug added simultaneously
Description: The effects of the complex action of various doses of the investigated substances were evaluated using the concept of synergistic, additive and antagonistic effects of the drugs. The mathematics are detailed below. […] The effects were calculated using the Chou-Talalay method according to the following equation (“CI” refers to the “combination index”) (see T.-C. […] Where both the ^85Rb-enriched rubidium salt (referred to as “E2+^85Rbe”) and an AD were administered, they were administered simultaneously.

[3] = tested on: Mouse melanoma cells (MM-4 cell line); test: Cytotoxic effect on melanoma cells, single agents (crystal violet)
Description: Materials and Methods: Mouse melanoma cells (MM-4 cell line) were seeded into 96-well plates (TPP, Italy) in DMEM (High Glucose w/L-Glutamine w/o Sodium Pyruvate; Biowest, France) supplemented with 10% newborn calf serum (Biowest, France) and […] gentamicin (Sigma, USA) at a seeding density of 5×10^4 cells/ml. The cells were then cultured in an incubator with a humidified atmosphere of 5% CO2 in air at 37° C. 24 hours after the cells were seeded, a compound according to the invention that comprises ^85Rb-enriched rubidium salt of N-benzoyl-N′-(4-toluenesulfonyl)-o-phenylenediamine of formula I was added into the appropriate wells. ^85Rbe-E2 was used at the following doses: 2.0 μg/ml, 1.0 μg/ml, 0.5 μg/ml (each is the final concentration of ^85Rbe after addition to the well). The cytotoxic effect was determined by counting the number of live cells observed after treatment, expressed as a percentage of the number of live cells observed/counted in the control (cells seed in the well and not treated). Control cells were not treated. For each concentration, the experiment was carried out twice. The effects of the drugs were evaluated visually, which allowed us to examine the morphological pattern of the cytotoxic action of the drugs, and by staining the cells with crystal violet, followed by OD measurement at an excitation wavelength of 540 nm using a MultiScan spectrophotometer. For comparison, a parallel experiment was carried out with the use of a known antitumor drug cisplatin and a compound of rubidium salt of N-benzoyl-N′-(4-toluenesulfonyl)-o-phenylenediamine of formula I which comprised a naturally-abundant mixture of isotopes of rubidium instead of being enriched for the ^85Rb isotope.

Cc1ccc(S(=O)(=O)Nc2ccccc2NC(=O)c2ccccc2)cc1 [^85Rbe − E2, ^85Rb-enriched rubidium salt of N-benzoyl-N′-(4-toluenesulfonyl)-o-phenylenediamine]
% surviving MM-4 cells ([1]; E2+85Rbe 0.5 μg/ml alone, first stage): 32.3 ± 0.7%
% surviving MM-4 cells ([1]; E2+85Rbe 0.5 μg/ml alone, second stage (24 h later)): 51 ± 1%
% surviving MM-4 cells ([1]; E2+85Rbe 1 μg/ml alone, first stage): 8.3 ± 0.5%
% surviving MM-4 cells ([1]; E2+85Rbe 1 μg/ml alone, second stage (24 h later)): 19 ± 0.5%
% surviving MM-4 cells ([1]; E2+85Rbe 2 μg/ml alone, first stage): 6.4 ± 0.3%
% surviving MM-4 cells ([1]; E2+85Rbe 2 μg/ml alone, second stage (24 h later)): 17.7 ± 0.8%
% surviving MM-4 cells ([2]; E2+85Rbe 0.5 μg/ml alone): 32.3 ± 0.7%
% surviving MM-4 cells ([2]; E2+85Rbe 1 μg/ml alone): 8.3 ± 0.5%
% surviving MM-4 cells ([2]; E2+85Rbe 2 μg/ml alone): 6.4 ± 0.3%
Number of cells after their treatment with the drug, % ([3]; 0.5 μg/ml of rubidium (85Rbe or Rb)): 32.3 ± 0.7%
Number of cells after their treatment with the drug, % ([3]; 1.0 μg/ml of rubidium (85Rbe or Rb)): 8.3 ± 0.5%
Number of cells after their treatment with the drug, % ([3]; 2.0 μg/ml of rubidium (85Rbe or Rb)): 6.4 ± 0.3%

N.N.[Cl][Pt][Cl] [cisplatin]
% surviving MM-4 cells ([1]; cisplatinum 0.5 μg/ml alone, first stage): 84 ± 3.3%
% surviving MM-4 cells ([1]; cisplatinum 0.5 μg/ml alone, second stage): 84.6 ± 3.5%
% surviving MM-4 cells ([1]; cisplatinum 1 μg/ml alone, first stage): 51.7 ± 6.9%
% surviving MM-4 cells ([1]; cisplatinum 1 μg/ml alone, second stage): 70 ± 3.6%
% surviving MM-4 cells ([1]; cisplatinum 2.5 μg/ml alone, first stage): 24.6 ± 5.2%
% surviving MM-4 cells ([1]; cisplatinum 2.5 μg/ml alone, second stage): 34 ± 2.6%
% surviving MM-4 cells ([1]; cisplatinum 5 μg/ml alone, first stage): 13.8 ± 1.2%
% surviving MM-4 cells ([1]; cisplatinum 5 μg/ml alone, second stage): 35.2 ± 3.3%
% surviving MM-4 cells ([1]; cisplatinum 10 μg/ml alone, first stage): 2.6 ± 1.4%
% surviving MM-4 cells ([1]; cisplatinum 10 μg/ml alone, second stage): 19.4 ± 0.9%
% surviving MM-4 cells ([2]; cisplatinum 0.5 μg/ml alone): 84 ± 3.3%
% surviving MM-4 cells ([2]; cisplatinum 1 μg/ml alone): 51.7 ± 6.9%
% surviving MM-4 cells ([2]; cisplatinum 2.5 μg/ml alone): 24.6 ± 5.2%
% surviving MM-4 cells ([2]; cisplatinum 5 μg/ml alone): 13.8 ± 1.2%
% surviving MM-4 cells ([2]; cisplatinum 10 μg/ml alone): 2.6 ± 1.4%
Number of cells after their treatment with the drug, % ([3]; cisplatin 0.5 μg/ml): 84 ± 3.3%
Number of cells after their treatment with the drug, % ([3]; cisplatin 1.0 μg/ml): 51.7 ± 6.9%
Number of cells after their treatment with the drug, % ([3]; cisplatin 2.5 μg/ml): 24.6 ± 5.2%
Number of cells after their treatment with the drug, % ([3]; cisplatin 5 μg/ml): 13.8 ± 1.2%
Number of cells after their treatment with the drug, % ([3]; cisplatin 10 μg/ml): 2.6 ± 1.4%
